From patent publication US20250051316A1, “2-(ARYL-2-YL) […] […], PREPARATION METHOD THEREFOR AND APPLICATION THEREOF” (SHANGHAI HANSOH BIOMEDICAL CO., LTD., priority 2021, published 2025)

Molecular target: T1, TAAR1 receptor (Homo sapiens, UniProt Q96RJ0)
T1 construct: expressed in transfected cells
T1 sequence (Q96RJ0 1-339): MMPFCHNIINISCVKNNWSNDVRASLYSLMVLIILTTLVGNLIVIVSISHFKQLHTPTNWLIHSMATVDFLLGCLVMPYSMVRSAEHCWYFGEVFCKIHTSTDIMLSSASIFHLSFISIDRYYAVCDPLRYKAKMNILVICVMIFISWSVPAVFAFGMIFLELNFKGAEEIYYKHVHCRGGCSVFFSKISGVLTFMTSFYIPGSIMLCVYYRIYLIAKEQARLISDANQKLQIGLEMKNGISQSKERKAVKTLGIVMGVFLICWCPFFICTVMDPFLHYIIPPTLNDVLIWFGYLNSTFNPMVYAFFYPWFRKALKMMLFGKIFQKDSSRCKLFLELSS
Experiment: Effect on cAMP content in cells which stably express TAAR1 receptor
Type: cell-based
Conditions: not given
Description: Test Example1. Determination of the effect of the present compound on cAMP content in cells which stably express TAAR1 receptor
Determination of the activation effect of compounds on TAAR1 receptors.
• 1) Preparation of experimental buffer: 1*HBSS+20 mM HEPES+0.1% BSA+500 μM IBMX. • 2) Complete medium: • Ham's F12K+10% Fetal Bovine Serum+1*Penicillin-Streptomycin+200 μg/mL Hygromycin B for CHO • DMEM+10% Fetal Bovine Serum+1*Penicillin-Streptomycin+200 μg/mL Hygromycin B for HEK293 • 3) TAAR1 cell line was cultured in complete medium at 37° C. and 5% CO2; After TrypLE digestion, the cells were resuspended in the experimental buffer and seeded into a 384 cell culture plate with a density of 8000 cells/15 ul/well. • 4) The compound was diluted with experimental buffer and added 5 μL to each well to culture at 37° C. for 30 minutes. • 5) cAMP-d2 and Anti cAMP Eu3+ were freeze thaw, and diluted 20 times with lysis buffer; 10 μL cAMP-d2 was added to the experimental well, and then 10 μL Anti cAMP Eu3+ was added into the experimental well; the reaction plate was centrifuged at 200 g for 30 seconds at room temperature, and stand at 25° C. for 1 hour; data was collected by Envision.
[formula] • 5) EC50 of compounds was calculated using GraphPad nonlinear fitting formula:
[formula] • X: Log value of the compound concentration; Y: Activation %

In order of falling EC50:
1. Clc1ccc(C2CNCCO2)nc1 (single isomer, unassigned) [Example 25-2]  207 nM
2. [2H]C1([2H])COC(c2cc(C)ccn2)CN1 (single isomer, unassigned) [Example 16-1, 2-(4-Methylpyridin-2-yl)morpholin-5,5-d2]  21.3 nM
3. Clc1cccc(C2CNCCO2)c1 (single isomer, unassigned) [Example 46-1, 2-(3-Chlorophenyl)morpholine]  17.7 nM
4. Cc1nc([C@@H]2CNCCO2)ccc1F (single isomer, unassigned) [Example 19-2, 2-(5-fluoro-6-methyl-2-pyridyl)morpholine]  13.6 nM
5. Cc1cccc([C@@H]2CNCCO2)c1 [Example 47-2]  11.5 nM
6. c1ccc(C2CNCCO2)nc1 (stereo not shown) [Compound A, 2-(Pyridin-2-yl)morpholine]  7.1 nM
7. [2H]c1ccnc([C@@H]2CNCCO2)c1 (single isomer, unassigned) [Example 7-2, 2-(pyridin-2-yl-4-d)morpholine]  5.9 nM
8. [2H]c1ccc([C@H]2CNCCO2)nc1 (single isomer, unassigned) [Example 6-2, 2-(pyridin-2-yl-5-d)morpholine]  3.4 nM
9. [2H]c1ccc(C2CNCCO2)cc1 (single isomer, unassigned) [Example 28-2, 2-(phenyl-4-d)morpholine]  3 nM
10. Fc1cccc([C@@H]2CNCCO2)c1 [Example 48-1]  2.1 nM

Tested on: C57BL/6 mice, high spontaneous activity induced by phencyclidine (PCP)
Experiment: High spontaneous activity model of mice induced by phencyclidine (PCP)
Type: in vivo
Conditions: compound 3 mg/kg oral + PCP 5 mg/kg i.p., 60 minutes after modeling
Excerpt: Test Example 2. Pharmacodynamic Evaluation of the Present Compounds in Mice Model of High Spontaneous Activity Induced by Phencyclidine (PCP)
The purpose of the experiment is to evaluate the efficacy of compounds in a high spontaneous activity model of C57BL/6 mice induced by phencyclidine (PCP) using the spontaneous activity method.
C57BL/6 mice, provided by Shanghai Lingchang Biotechnology Co., Ltd., male, 6-8 weeks, 20-24 g, 36 mice.
The day before the experimental test, the animals were placed in the laboratory and acclimated for 8 hours.
On the day of adaptation, the animals were randomly grouped according to their weight.
The animals were weithed and treated with solvent control (20% HP-3-CD), compounds of the present invention (oral administration) respectively. 30 minutes later, modeling (intraperitoneal administration) was performed, and the animals were given physiological saline or phencyclidine, with dosage volume of 10 mL/kg.
After the administration, the animals were placed in observation box and the spontaneous activity was detected for 30 minutes. The moving distance (meters) of the animals in the observation box was counted every 5 minutes.
After 30 minutes, the animals were taken out for modeling and then placed in the observation box to test their spontaneous activity for 60 minutes. The moving distance (meters) of the animals in the observation box was counted every 5 minutes.
Excel software was used to collect data. A Two-Way ANOVA or One-Way ANOVA was conducted used Prism (Graph pad software, Inc.) software. p<0.05 was considered significant difference.

With `[2H]c1ccc(C2CNCCO2)cc1` (single isomer, unassigned) [Example 28-2, 2-(phenyl-4-d)morpholine] the “Total distance (m, Mean ± SEM) 60 minutes” value was 113.09 ± 12.69 m.

Same assay, conditions: compound 6 mg/kg oral + PCP 5 mg/kg i.p., 60 minutes after modeling

With `c1ccc(C2CNCCO2)nc1` (stereo not shown) [Compound A, 2-(Pyridin-2-yl)morpholine] the “Total distance (m, Mean ± SEM) 60 minutes” value was 113.09 ± 12.69 m.

Tested on: not listed separately
Experiment: Pharmacokinetic assay of Balb/c mice, plasma and brain, oral
Type: in vivo
Conditions: male, mouse, Brain, p.o. 5 mg/kg
Description: Test Example 3. Pharmacokinetic Assay of Balb/c Mice
Balb/c Mice were used as test animals. The pharmacokinetic behavior of the compounds of the present invention was studied in the plasma and brain of mice administered orally at the dose of 5 mg/kg.
Balb/c Mice, male, Shanghai Jiesijie Experimental Animal Co., Ltd., animal production license number (SCXK (Shanghai) 2013-0006 N0.311620400001794).
After fasting overnight, 24 male Balb/c mice were administered p.o. at a dose of 5 mg/kg and an administration volume of 10 mL/kg, respectively.
Drug formulation for oral administration: 0.5% CMC-Na (1% Tween 80).
After CO2 euthanasia of experimental animals, heart blood and brain tissue were collected at 0.25 h, 0.5 h, 1 h, 2 h, 4 h, 6 h, 8 h, and 24 h after administration. The blood was placed in EDTA-2K tubes and centrifuged at 4° C. and 6000 rpm for 6 minutes to separate plasma. The brain tissue was washed with pre-cooled PBS, dried, weighed, and stored at −80° C. The animals were feed 4 hours after administration.
1) 160 μL of acetonitrile was added to 40 μL of the plasma sample for precipitation, and then the mixture was centrifuged at 3500×g for 5-20 min.
2) 100 μL of the supernatant was taken to analyze the concentration of the test compound by LC/MS/MS.
• Liquid chromatography condition: Shimadzu LC-20AD pump • Mass spectrometry condition: AB Sciex API 4000 mass spectrometer • Chromatographic column: phenomenex Gemiu 5 μm C18 50×4.6 mm • Mobile phase: Eluent A was 0.10% formic acid in water, and Eluent B was acetonitrile • Flow rate: […] • Elution time: 0-4.0 minutes, the eluent is as follows:
The main pharmacokinetic parameters were calculated using WinNonlin8.1, and the results of the pharmacokinetic experiments in mouse are shown in the table below.

In order of rising AUC(0-t):
1. [2H]c1ccc(C2CNCCO2)cc1 (single isomer, unassigned) [Example 28-2, 2-(phenyl-4-d)morpholine]  3980 ng·h/mL
2. [2H]c1ccnc([C@@H]2CNCCO2)c1 (single isomer, unassigned) [Example 7-2, 2-(pyridin-2-yl-4-d)morpholine]  4410 ng·h/mL
3. [2H]C1([2H])COC(c2cc(C)ccn2)CN1 (single isomer, unassigned) [Example 16-1, 2-(4-Methylpyridin-2-yl)morpholin-5,5-d2]  5630 ng·h/mL
4. [2H]c1ccc([C@H]2CNCCO2)nc1 (single isomer, unassigned) [Example 6-2, 2-(pyridin-2-yl-5-d)morpholine]  6480 ng·h/mL
5. Cc1nc([C@@H]2CNCCO2)ccc1F (single isomer, unassigned) [Example 19-2, 2-(5-fluoro-6-methyl-2-pyridyl)morpholine]  8640 ng·h/mL

In order of falling Cmax:
1. [2H]c1ccc([C@H]2CNCCO2)nc1 (single isomer, unassigned) [Example 6-2, 2-(pyridin-2-yl-5-d)morpholine]  3030 ng/mL
2. Cc1nc([C@@H]2CNCCO2)ccc1F (single isomer, unassigned) [Example 19-2, 2-(5-fluoro-6-methyl-2-pyridyl)morpholine]  2510 ng/mL
3. [2H]c1ccnc([C@@H]2CNCCO2)c1 (single isomer, unassigned) [Example 7-2, 2-(pyridin-2-yl-4-d)morpholine]  2500 ng/mL
4. [2H]c1ccc(C2CNCCO2)cc1 (single isomer, unassigned) [Example 28-2, 2-(phenyl-4-d)morpholine]  2110 ng/mL
5. [2H]C1([2H])COC(c2cc(C)ccn2)CN1 (single isomer, unassigned) [Example 16-1, 2-(4-Methylpyridin-2-yl)morpholin-5,5-d2]  1740 ng/mL

In order of falling Tmax:
1. Cc1nc([C@@H]2CNCCO2)ccc1F (single isomer, unassigned) [Example 19-2, 2-(5-fluoro-6-methyl-2-pyridyl)morpholine]  120 min
2. [2H]c1ccnc([C@@H]2CNCCO2)c1 (single isomer, unassigned) [Example 7-2, 2-(pyridin-2-yl-4-d)morpholine]  30 min
3. [2H]c1ccc([C@H]2CNCCO2)nc1 (single isomer, unassigned) [Example 6-2, 2-(pyridin-2-yl-5-d)morpholine]  15 min
4. [2H]C1([2H])COC(c2cc(C)ccn2)CN1 (single isomer, unassigned) [Example 16-1, 2-(4-Methylpyridin-2-yl)morpholin-5,5-d2]  15 min
5. [2H]c1ccc(C2CNCCO2)cc1 (single isomer, unassigned) [Example 28-2, 2-(phenyl-4-d)morpholine]  15 min

In order of falling half-life:
1. [2H]C1([2H])COC(c2cc(C)ccn2)CN1 (single isomer, unassigned) [Example 16-1, 2-(4-Methylpyridin-2-yl)morpholin-5,5-d2]  174 min
2. [2H]c1ccc(C2CNCCO2)cc1 (single isomer, unassigned) [Example 28-2, 2-(phenyl-4-d)morpholine]  78 min
3. Cc1nc([C@@H]2CNCCO2)ccc1F (single isomer, unassigned) [Example 19-2, 2-(5-fluoro-6-methyl-2-pyridyl)morpholine]  66 min
4. [2H]c1ccnc([C@@H]2CNCCO2)c1 (single isomer, unassigned) [Example 7-2, 2-(pyridin-2-yl-4-d)morpholine]  54 min
5. [2H]c1ccc([C@H]2CNCCO2)nc1 (single isomer, unassigned) [Example 6-2, 2-(pyridin-2-yl-5-d)morpholine]  48 min

Same assay, conditions: male, mouse, Plasma, p.o. 5 mg/kg

In order of falling AUC(0-t):
1. [2H]c1ccc([C@H]2CNCCO2)nc1 (single isomer, unassigned) [Example 6-2, 2-(pyridin-2-yl-5-d)morpholine]  4300 ng·h/mL
2. [2H]c1ccnc([C@@H]2CNCCO2)c1 (single isomer, unassigned) [Example 7-2, 2-(pyridin-2-yl-4-d)morpholine]  2840 ng·h/mL
3. [2H]c1ccc(C2CNCCO2)cc1 (single isomer, unassigned) [Example 28-2, 2-(phenyl-4-d)morpholine]  2820 ng·h/mL
4. Cc1nc([C@@H]2CNCCO2)ccc1F (single isomer, unassigned) [Example 19-2, 2-(5-fluoro-6-methyl-2-pyridyl)morpholine]  2760 ng·h/mL
5. [2H]C1([2H])COC(c2cc(C)ccn2)CN1 (single isomer, unassigned) [Example 16-1, 2-(4-Methylpyridin-2-yl)morpholin-5,5-d2]  2270 ng·h/mL

In order of falling Cmax:
1. [2H]c1ccc([C@H]2CNCCO2)nc1 (single isomer, unassigned) [Example 6-2, 2-(pyridin-2-yl-5-d)morpholine]  2050 ng/mL
2. [2H]c1ccnc([C@@H]2CNCCO2)c1 (single isomer, unassigned) [Example 7-2, 2-(pyridin-2-yl-4-d)morpholine]  1560 ng/mL
3. [2H]c1ccc(C2CNCCO2)cc1 (single isomer, unassigned) [Example 28-2, 2-(phenyl-4-d)morpholine]  1340 ng/mL
4. [2H]C1([2H])COC(c2cc(C)ccn2)CN1 (single isomer, unassigned) [Example 16-1, 2-(4-Methylpyridin-2-yl)morpholin-5,5-d2]  890 ng/mL
5. Cc1nc([C@@H]2CNCCO2)ccc1F (single isomer, unassigned) [Example 19-2, 2-(5-fluoro-6-methyl-2-pyridyl)morpholine]  705 ng/mL

In order of falling Tmax:
1. Cc1nc([C@@H]2CNCCO2)ccc1F (single isomer, unassigned) [Example 19-2, 2-(5-fluoro-6-methyl-2-pyridyl)morpholine]  120 min
2. [2H]c1ccnc([C@@H]2CNCCO2)c1 (single isomer, unassigned) [Example 7-2, 2-(pyridin-2-yl-4-d)morpholine]  30 min
3. [2H]c1ccc([C@H]2CNCCO2)nc1 (single isomer, unassigned) [Example 6-2, 2-(pyridin-2-yl-5-d)morpholine]  15 min
4. [2H]C1([2H])COC(c2cc(C)ccn2)CN1 (single isomer, unassigned) [Example 16-1, 2-(4-Methylpyridin-2-yl)morpholin-5,5-d2]  15 min
5. [2H]c1ccc(C2CNCCO2)cc1 (single isomer, unassigned) [Example 28-2, 2-(phenyl-4-d)morpholine]  15 min

In order of falling half-life:
1. Cc1nc([C@@H]2CNCCO2)ccc1F (single isomer, unassigned) [Example 19-2, 2-(5-fluoro-6-methyl-2-pyridyl)morpholine]  222 min
2. [2H]C1([2H])COC(c2cc(C)ccn2)CN1 (single isomer, unassigned) [Example 16-1, 2-(4-Methylpyridin-2-yl)morpholin-5,5-d2]  114 min
3. [2H]c1ccc(C2CNCCO2)cc1 (single isomer, unassigned) [Example 28-2, 2-(phenyl-4-d)morpholine]  84 min
4. [2H]c1ccc([C@H]2CNCCO2)nc1 (single isomer, unassigned) [Example 6-2, 2-(pyridin-2-yl-5-d)morpholine]  48 min
5. [2H]c1ccnc([C@@H]2CNCCO2)c1 (single isomer, unassigned) [Example 7-2, 2-(pyridin-2-yl-4-d)morpholine]  48 min
